“Also recorded” adds a separate entry of the source.
Tests used:
[1] = cited from earlier work
[2] = system: imatinib mesylate-resistant chronic myeloid leukemia cells; details: by down-regulating bcr-abl; cited from earlier work
[3] = in vivo; cited from earlier work
human T-cells = details: cited from earlier work
[4] = system: non-infected Vero E6 cells; type: cell-based; details: cell viability, read-out: EC 50 in non-infected Vero E6 cells
SARS-CoV-2 [5] = details: Vero E6 cells
[6] = system: Akt and Erk1/2 phosphorylation; details: exosomes stimulated HUVEC cell; cited from earlier work
Cytokines in plasma = assay: Phase I trial of CTO in cancer patients: plasma cytokine levels by Milliplex/Luminex panel; type: in vivo, human; design: key to GM-CSF plasma level / IFNα2 plasma level / IFNγ plasma level / IL-10 plasma level / IL-12p40 plasma level / IL-12p70 plasma level / IL-13 plasma level / IL-15 plasma level / IL-17A plasma level / IL-1RA plasma level / IL-2 plasma level / IL-4 plasma level / IL-6 plasma level / IL-8 plasma level / IP-10 plasma level / MIP1a plasma level / RANTES plasma level / IL-1β plasma level / TNFα plasma level / VEGF plasma level / EGF plasma level: + increased; − decreased
Protocol: Such an approach described above is based on unexpected findings when CTO was given to cancer patients who volunteered to participate in Phase I clinical studies of CTO to establish its safety and tolerability.
In a Phase I trial of CTO testing the safety and tolerability of CTO in cancer patients, Plasa samples were obtained from three patients after administration of different doses of CTO daily as follows: 1) NSCLC Patient 002-46 (CTO 555 mg/m2), 2) NSCLC Patient 002-50 (CTO 427 mg/m2) and 3) Ovarian Cancer Patient 002-53(CTO 427 mg/m2) The levels of cytokines were measured by using the HCYTMAG-60K-PX30/Milliplex MAP Human Cytokine/Chemokine Magnetic Bead Panel from Milliplex, USA.

SARS-CoV-2 [7] = type: in vivo; details: one patient, 600 mg daily oral, second day
[8] = cancer patients, CTO 427-555 mg/m2 daily, vs baseline

In the case of `NC(=O)c1nnn(Cc2cc(Cl)c(C(=O)c3ccc(Cl)cc3)c(Cl)c2)c1N` [CAI, carboxyamidotriazole], the “colitis scored macroscopically and microscopically” value ([1]; animals) is listed as “inhibited”, the NF-kB activation ([1]; in vivo) is listed as “prevented” and the “production of fibrinogenic cytokine transforming growth factor β” value ([1]; in vivo) is listed as “inhibited”. The “production of TNF-α, IL-1β and IL-6” value ([1]; serum, supernatant of peritoneal macrophages and lamina propria) was “inhibited”, the apoptosis [2] was “induces apoptosis” and the “TNF-α and IL-1β at the site of inflammation and in serum” value [3] was “decreased”. The “vascular permeability stimulated by VEGF or histamine” value [3] was “inhibited” and the “calcium influx and HIV LTR transcription dependent on it” value (human T-cells) was “modulated”.
`NC(=O)c1nnn(Cc2cc(Cl)c(C(=O)c3ccc(Cl)cc3)c(Cl)c2)c1N.O=C(O)c1cc(=O)[nH]c(=O)[nH]1` [CTO, 5-amino-1-(4-(4-chlorobenzyl)-1,2,3-triazole-4-carboxamide orotate] gave an EC50 [4] of 14.9 µM and an IC50 (SARS-CoV-2 [5]; read-out: IC50, cytopathic effect (CPE) for SARS-CoV-2, 72 hours post-inoculation, 20 μM highest dose tested) greater than 20 µM.
In the case of `NC(=O)c1nnn(Cc2cc(Cl)c(C(=O)c3ccc(Cl)cc3)c(Cl)c2)c1N.O=C(O)c1cc(=O)[nH]c(=O)[nH]1` [CTO], the “concentration up to which CTO inhibited replication of SARS-CoV-2” value (SARS-CoV-2 [5]) is reported as “up to 5 μM”, the cell viability (SARS-CoV-2 [5]; CTO up to 5 μM) is reported as “above 90%” and the “Maximum % Inhibition of CPE” value (SARS-CoV-2 [5]; recorded <20 μM concentration) is reported as 29.03%. The “Akt and Erk1/2 phosphorylation” value [6] was “inhibits”, the EGF plasma level (Cytokines in plasma; [8]) was “EGF- (+)” and the GM-CSF plasma level (Cytokines in plasma; [8]) was “GM-CSF- (−)”. The IFNα2 plasma level (Cytokines in plasma; [8]) was “IFNα2- (+)”, the IFNγ plasma level (Cytokines in plasma; [8]) was “IFNγ- (−)” and the IL-1RA plasma level (Cytokines in plasma; [8]) was “IL-1RA- (−)”. The IL-1β plasma level (Cytokines in plasma; [8]) was “**IL-1β- (−)”, the IL-2 plasma level (Cytokines in plasma; [8]) was “IL-2- (−)” and the IL-4 plasma level (Cytokines in plasma; [8]) was “IL-4- (−)”. For the same molecule, the IL-6 plasma level (Cytokines in plasma; [8]) was “IL-6- (−)”, the IL-8 plasma level (Cytokines in plasma; [8]) was “IL-8-(−)” and the IL-10 plasma level (Cytokines in plasma; [8]) was “IL-10- (+)”. For the same molecule, the IL-12p40 plasma level (Cytokines in plasma; [8]) was “IL-12p40- (+)”, the IL-12p70 plasma level (Cytokines in plasma; [8]) was “IL-12p70- (−)” and the IL-13 plasma level (Cytokines in plasma; [8]) was “IL-13-(−)”. For the same molecule, the IL-15 plasma level (Cytokines in plasma; [8]) was “IL-15- (−)”, the IL-17A plasma level (Cytokines in plasma; [8]) was “IL-17A- (−)” and the IP-10 plasma level (Cytokines in plasma; [8]) was “IP-10- (−)”. For the same molecule, the MIP1a plasma level (Cytokines in plasma; [8]) was “MIP1a- (−)”, the RANTES plasma level (Cytokines in plasma; [8]) was “RANTES- (+)” and the TNFα plasma level (Cytokines in plasma; [8]) was “**TNFα- (−)”. The VEGF plasma level (Cytokines in plasma; [8]) was “VEGF- (−)”, the “levels of cytokines including EGF, IFN α2, IL-10, IL-12p40” value (Cytokines in plasma; plasma, CTO 427 mg/m2 to 555 mg/m2) was “increase” and the “levels of several cytokines including VEGF, GM-CSF, INF-γ, IL-2, IL-12p70, IL-13, IL-15, IL-17a, IL-1RA, IL-1α, IL-2, IL1-4, IL-6, IL-8, il-10, MIP1-α, IL-1β, TNF-α” value (Cytokines in plasma; plasma, CTO 427 mg/m2 to 555 mg/m2, forty-eight hours interval after CTO, vs baseline) was “reduced; also recorded: reduction”. For the same molecule, the COVID-19 symptoms (SARS-CoV-2 [7]) was “great improvement in most of the symptoms” and the body weight (SARS-CoV-2 [7]; lost twelve pounds before treatment) was “remained at constant weight”.
